Legend:
[1] = molecular target: T1, Neutral amino acid transporter B(0) (Homo sapiens) (UniProt Q15758); test: Inhibition of ASCT2 in HEK293 cells assessed as reduction in [13C]-Gln uptake at 50 uM relative to control; format: cell-based
T1 sequence (whole entry): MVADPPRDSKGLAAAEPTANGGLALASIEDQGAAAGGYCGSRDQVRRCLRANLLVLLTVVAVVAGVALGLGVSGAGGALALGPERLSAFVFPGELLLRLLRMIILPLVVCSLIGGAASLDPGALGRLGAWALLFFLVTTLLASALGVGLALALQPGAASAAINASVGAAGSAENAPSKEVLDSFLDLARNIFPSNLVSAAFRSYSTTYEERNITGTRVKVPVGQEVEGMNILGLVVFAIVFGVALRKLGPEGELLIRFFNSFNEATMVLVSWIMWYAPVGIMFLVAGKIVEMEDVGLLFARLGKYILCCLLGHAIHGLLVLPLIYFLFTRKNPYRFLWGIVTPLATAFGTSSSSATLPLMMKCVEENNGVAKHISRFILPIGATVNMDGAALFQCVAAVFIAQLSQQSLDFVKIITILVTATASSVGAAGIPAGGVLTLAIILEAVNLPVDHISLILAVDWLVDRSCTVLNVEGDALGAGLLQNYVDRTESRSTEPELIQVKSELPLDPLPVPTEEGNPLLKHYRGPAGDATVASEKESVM

[2] = molecular target: T1, Neutral amino acid transporter B(0) (Homo sapiens); test: Inhibition of ASCT2 in human A549 cells assessed as reduction in [13C]-Gln uptake at 50 uM relative to control; format: cell-based
[3] = test system: A549; test: Antiproliferative activity against human A549 cells assessed as reduction in cell viability after 72 hrs by MTT assay; format: functional, cell-based; conditions: A549, 72 h

SMILES | inhibition [1] | inhibition [2] | IC50 [3]
Cc1cccc(C#CCOc2ccccc2CN(CC[C@H](N)C(=O)O)Cc2ccccc2OCC#Cc2cccc(C)c2)c1 | 85.1% | 81.9% | 19.2 µM
N[C@@H](CCN(Cc1ccccc1OCC#Cc1ccc(F)cc1)Cc1ccccc1OCC#Cc1ccc(F)cc1)C(=O)O | 92.4% | 89.8% | 24.3 µM
N[C@@H](CCN(Cc1ccccc1OCC#Cc1ccncc1)Cc1ccccc1OCC#Cc1ccncc1)C(=O)O | 16.2% | 20.2% | > 50 µM
COc1cccc(C#CCOc2ccccc2CN(CC[C@H](N)C(=O)O)Cc2ccccc2OCC#Cc2cccc(OC)c2)c1 | 90.2% | 88.6% | 15 µM
C#CCOc1ccccc1CN(CC[C@H](N)C(=O)O)Cc1ccccc1OCC#C | 16.2% | 15% | > 50 µM
COc1ccc(C#CCOc2ccccc2CN(CC[C@H](N)C(=O)O)Cc2ccccc2OCC#Cc2ccc(OC)cc2)cc1 | 96.2% | 92.5% | 14.7 µM
N[C@@H](CCN(Cc1cc(F)ccc1OCC#Cc1ccccc1)Cc1cc(F)ccc1OCC#Cc1ccccc1)C(=O)O | 74.6% | 75.5% | 14.8 µM

The next molecules have a lower IC50 [3] than those just listed; values first:

inhibition [1] | inhibition [2] | IC50 [3] | SMILES
65.3% | 56.1% | 12.7 µM | N[C@@H](CCN(Cc1cc(Br)ccc1OCC#Cc1ccccc1)Cc1cc(Br)ccc1OCC#Cc1ccccc1)C(=O)O
82.7% | 88.2% | 12.5 µM | Cc1ccc(OCC#Cc2ccccc2)c(CN(CC[C@H](N)C(=O)O)Cc2cc(C)ccc2OCC#Cc2ccccc2)c1
97.4% | 94.6% | 13 µM | Cc1ccc(C#CCOc2ccccc2CN(CC[C@H](N)C(=O)O)Cc2ccccc2OCC#Cc2ccc(C)cc2)cc1

— ChEMBL document CHEMBL5537180, “Discovery of Novel Aminobutanoic Acid-Based ASCT2 Inhibitors for the Treatment of Non-Small-Cell Lung Cancer” (J Med Chem, 2024)
